{"source": "patent US10576082B2", "about": "“ErbB2 regulates autophagic flux to modulate the proteostasis of APP-CTFs in alzheimer's disease” (Academia Sinica, priority 2016, dated 2020)", "key": {"[1]": {"system": "APPswe/PS1ΔE9 double transgenic mice", "test": "Brain Aβ40 and Aβ42 ELISA in treated APPswe/PS1ΔE9 mice", "format": "in vivo, mouse", "details": "5 mg/kg daily oral, 20 days, normalized to total protein"}, "[2]": {"system": "HEK293 cells overexpressing C99-YFP", "test": "Western blotting of HEK293 cells overexpressing C99-YFP", "format": "cell-based", "details": "1 μM, 37° C., 24 h", "method": "(A) Adherent CG and NG cells (20,000 cells/well) were treated with 1 μM of the indicated ErbB1/2-selective tyrosine kinase inhibitors in the presence of 1 μg/ml tetracycline at 37° C. for 24 h. The luminescence signals emitted by cells treated with vehicle alone (Ctrl, 0.1% DMSO) were referred to as 100% relative luminescence signals. The luminescence signals generated by γ-secretase-mediated proteolysis of C99 (CG) or NΔE (NG) were determined using the Steady-Glo luciferase assay reagent. (B) HEK293 overexpressing C99-YFP cells were treated with 1 μM of the indicated ErbB1/2 tyrosine kinase inhibitors at 37° C. for 24 h. Clarified lysates were analyzed by Western blotting and quantified by Image J. (C) HEK293 overexpressing ErbB1 ErbB2, CFP-tagged C99, and YFP-tagged NΔE cells were infected with gene-targeting shRNA-encoding lentivirus (shErbB1 or shErbB2) at 37° C. for 48 h. Clarified lysates containing equivalent amounts of proteins were examined by Western blotting and quantified by Image J. (D) CG and NG cells were infected with gene-targeting shRNA-encoding lentivirus at 37° C. for 48 h. Following induction with 1 μg/ml tetracycline for 24 h. Cells infected with empty lentivirus (w/o) or LacZ-targeting shRNA lentivirus (shCtrl_a and shCtrl_b) were included as controls. Data are shown as the mean±SD from three independent experiments, and were analyzed by Student's t-tests. * p<0.05.\nClarified lysates containing equivalent amounts of proteins were analyzed by Western blotting. (B, C) HEK293 overexpressing CFP-LC3 cells were infected with lentivirus encoding shRNA targeting LacZ ErbB2, or ErbB2 plus ATG5 for 48 h. The autophagy induction was analyzed by fluorescence confocal microscopy. The number of CFP-LC3 puncta per cell was quantified. The levels of LC3-I, LC3-II, and GAPDH were analyzed by Western blotting. (D, E) HEK293 cells overexpressing ErbB1, ErbB2, CFP-tagged C99, and YFP-tagged NΔE were infected with lentivirus encoding shRNA targeting LacZ (Ctrl), ErbB1, or ErbB2 for 48 h. Infection mixtures were replaced with 2 ml of fresh culture medium, and infected cells were then incubated at 37° C. for an additional 24 h. The levels of LC3-1, LC3-II, and p62 were analyzed by Western blotting and quantified by NIH Image J. Conditional media were harvested and processed for determination of secreted Aβ40 using a colourimetric Aβ40-specific ELISA kit. (F, G) HEK293 cells overexpressing C99-YFP were treated with vehicle (DMSO) or 1 μM CL-387,785 at 37° C. for 24 h and analyzed by Western blotting. Conditional media were harvested for determination of secreted Aβ40. The quantitative data are shown as mean±SD from three independent experiments, and were analyzed by Student's t-tests. * p<0.05.\nPreparation of cell extracts. To prepare total cell-free extracts, we harvested cells in 6-well microplates with ice-cold PBS containing 20 mM EDTA, and then pelleted the cells by centrifugation. PBS-washed cells were resuspended in a lysis buffer containing 1% Triton X-100, 50 mM Tris-HCl pH 7.5, 150 mM NaCl, 25 mM β-glycerophosphate, 1 mM Na3VO4, and protease inhibitor cocktail set V (Merck). Following the removal of cell debris by centrifugation, clarified lysates were processed for immunoprecipitation, Western blotting, or quantification of BCA protein content.\nWestern blotting analysis. Protein concentration was measured with the BCA Protein Assay Kit (Pierce). […]"}}, "data": [{"smiles": "CC#CC(=O)Nc1ccc2ncnc(Nc3cccc(Br)c3)c2c1", "note": "[CL-387,785, N-[4-[(3-bromophenyl)amino]-6-quinazolinyl]-2-butynamide]", "values": [{"measurement": "reduction in the level of Aβ40 in brain", "setting": "[1]", "value": "approximately 40%"}, {"measurement": "reduction in the level of Aβ42 in brain", "setting": "[1]", "value": "approximately 40%"}, {"measurement": "LC3-II/LC3-I ratio", "setting": "[2]", "value": "concurrent increase"}, {"measurement": "level of AICD", "setting": "[2]", "value": "concomitantly decreased"}, {"measurement": "level of C99", "setting": "[2]", "value": "concomitantly decreased"}, {"measurement": "level of ErbB2", "setting": "[2]", "value": "concomitantly decreased"}, {"measurement": "level of p62", "setting": "[2]", "value": "significant reduction"}]}]}
